# Results published in patent US20100184094A1, “USE OF MDCK CELLS IN THE EVALUATION OF CHOLESTEROL MODULATORS” (priority 2007, published 2010).
# Tests used:
# [1] = molecular target: dog NPC1L1 endogenously expressed in MDCKII cells (Canis lupus familiaris, UniProt A0A8I3RZG1); experiment: [3H]AS binding to MDCKII cells (saturation, kinetics, competition, acid wash)
# Procedure: (§1) rNPC1L1/HEK293 and TsA201 cells were seeded at a density of 10,000 cells per well in 96-well poly-D-lysine coated plates and cells were allowed to attach for approximately 18 h at 37° C. TsA201 cells were subsequently transfected with dog NPC1L1/pcDNA5/FRT according to the manufacturer's instructions (Roche) and incubated for 3 days at 37° C. MDCKII-derived, LLC-PKI, HepG2, or CaCo-2 cells were seeded at a density of 25,000 cells per well in 96-well tissue culture treated plates, and cells were allowed to attach and differentiate for approximately 72 h at 37° C., except for CaCo-2 cells where differentiation took approximately 14 days at 37° C. […] Duplicate samples were averaged for each experimental point. […] Dissociation kinetics were determined by addition of 100 μM EZE-gluc, and incubating for different periods of time. Nonspecific binding was defined in the presence of 100 μM EZE-gluc. At the end of the incubation period, cells were washed twice with 200 μl of pre-warmed DMEM to separate bound from free ligand, 1% SDS was added to the wells followed by 5 ml of Scintillant, and radioactivity associated with cells was determined using a β-counter. […] Thereafter, plates were placed on ice and cells were washed twice with ice-cold PBS, followed by ice-cold acid wash with DMEM, pH 3.5, for 1, 5 or 15 minutes. […] For Transwell experiments, MDCKII cells were seeded at 200,000 cells/well in a 24-well plate and incubated for 3 days at 37° C. […] Thereafter, both apical and basolateral compartments were washed three times with PBS, and the Transwell filter was cut out and its associated radioactivity determined using afi-counter. Data from saturation, competition and ligand dissociation experiments were analyzed as described in the literature; see, Priest, et al., 2004 Biochemistry 43:9866-9876; Knaus et al., 1995 Biochemistry 34:13627-13634. The association rate, k1, was determined by employing the pseudo-first-order rate equation k1=kobs([LR]e/[L][LR]max)) where [LR]max is the concentration of the complex at equilibrium, [L] is the concentration of ligand, [LR]max is the total receptor concentration, kobs is the slope of the pseudo-first order plot, ln([LR]e/([LR]e−[LR]t)) versus time, and [LR]t is the receptor-ligand complex at one given time point t.
# [2] = molecular target: T1, rat NPC1L1 (Rattus norvegicus, UniProt Q6T3U3); experiment: [3H]AS binding to rNPC1L1/HEK293 cells (saturation, kinetics, competition, acid wash)
# T1 construct: expressed in transfected cells
# Procedure: rNPC1L1/HEK293 and TsA201 cells were seeded at a density of 10,000 cells per well in 96-well poly-D-lysine coated plates and cells were allowed to attach for approximately 18 h at 37° C. TsA201 cells were subsequently transfected with dog NPC1L1/pcDNA5/FRT according to the manufacturer's instructions (Roche) and incubated for 3 days at 37° C. MDCKII-derived, LLC-PKI, HepG2, or CaCo-2 cells were seeded at a density of 25,000 cells per well in 96-well tissue culture treated plates, and cells were allowed to attach and differentiate for approximately 72 h at 37° C., except for CaCo-2 cells where differentiation took approximately 14 days at 37° C. […] Duplicate samples were averaged for each experimental point. […] To determine the kinetics of ligand association, cells were incubated with [^3H]AS for different periods of time. Dissociation kinetics were determined by addition of 100 μM EZE-gluc, and incubating for different periods of time. Nonspecific binding was defined in the presence of 100 μM EZE-gluc. At the end of the incubation period, cells were washed twice with 200 μl of pre-warmed DMEM to separate bound from free ligand, 1% SDS was added to the wells followed by 5 ml of Scintillant, and radioactivity associated with cells was determined using a β-counter. […] Thereafter, plates were placed on ice and cells were washed twice with ice-cold PBS, followed by ice-cold acid wash with DMEM, pH 3.5, for 1, 5 or 15 minutes. […] For Transwell experiments, MDCKII cells were seeded at 200,000 cells/well in a 24-well plate and incubated for 3 days at 37° C. […] Thereafter, both apical and basolateral compartments were washed three times with PBS, and the Transwell filter was cut out and its associated radioactivity determined using afi-counter. Data from saturation, competition and ligand dissociation experiments were analyzed as described in the literature; see, Priest, et al., 2004 Biochemistry 43:9866-9876; Knaus et al., 1995 Biochemistry 34:13627-13634. The association rate, k1, was determined by employing the pseudo-first-order rate equation k1=kobs([LR]e/[L][LR]max)) where [LR]max is the concentration of the complex at equilibrium, [L] is the concentration of ligand, [LR]max is the total receptor concentration, kobs is the slope of the pseudo-first order plot, ln([LR]e/([LR]e−[LR]t)) versus time, and [LR]t is the receptor-ligand complex at one given time point t.
# Incubation of rNPC1L1/HEK293 cells with 5 nM [311]AS results in a time-dependent association of ligand with cells that reaches equilibrium in ˜3 h (FIG. 1B). The nonspecific binding component is time-independent and has been subtracted from the experimental data. A semilogarithmic transformation of the data yielded a linear dependence (FIG. 1B, inset), as expected for a pseudo-first order reaction, and the slope of this line gives kobs of 0.0208 min^−1. The association rate constant, k1, calculated as described under Example 3, is 2.4×10^6 M^−1 min^−1.
# Ki values, determined as described above, are presented in Table 1 below and display the expected rank order of potency for interaction of these ligands with rat NPC1L1; Garcia-Calvo et al., 2005 Proc. Natl. Acad. Sci. USA 102:8132-8137.
# Such an approach has previously been previously used to characterize cell surface, non-covalent interactions; Hopkins & Trowbridge, 1983 J. Cell Biol. 97:508-521; Chen et al., 1998 Proc. Natl. Acad. USA 95:6373-6378.
# [3] = molecular target: dog NPC1L1 (Canis lupus familiaris, UniProt A0A8I3RZG1); experiment: [3H]AS binding to dog NPC1L1 transiently expressed in TsA201 cells
# Procedure: as §1
# To further validate this statement, cloned dog NPC1L1 was transiently expressed in TsA201 cells and binding of [^3]AS to these cells was then characterized (FIG. 5 and Table 1).
# [4] = molecular target: T2, human NPC1L1 (Homo sapiens, UniProt Q9UHC9); experiment: [3H]AS binding to hNPC1L1/MDCKII-Flp cells; details: FIG. 7D, read-out: Ki inhibition of [3H]AS binding
# T2 construct: expressed in transfected cells
# T2 sequence (Q9UHC9 22-1359): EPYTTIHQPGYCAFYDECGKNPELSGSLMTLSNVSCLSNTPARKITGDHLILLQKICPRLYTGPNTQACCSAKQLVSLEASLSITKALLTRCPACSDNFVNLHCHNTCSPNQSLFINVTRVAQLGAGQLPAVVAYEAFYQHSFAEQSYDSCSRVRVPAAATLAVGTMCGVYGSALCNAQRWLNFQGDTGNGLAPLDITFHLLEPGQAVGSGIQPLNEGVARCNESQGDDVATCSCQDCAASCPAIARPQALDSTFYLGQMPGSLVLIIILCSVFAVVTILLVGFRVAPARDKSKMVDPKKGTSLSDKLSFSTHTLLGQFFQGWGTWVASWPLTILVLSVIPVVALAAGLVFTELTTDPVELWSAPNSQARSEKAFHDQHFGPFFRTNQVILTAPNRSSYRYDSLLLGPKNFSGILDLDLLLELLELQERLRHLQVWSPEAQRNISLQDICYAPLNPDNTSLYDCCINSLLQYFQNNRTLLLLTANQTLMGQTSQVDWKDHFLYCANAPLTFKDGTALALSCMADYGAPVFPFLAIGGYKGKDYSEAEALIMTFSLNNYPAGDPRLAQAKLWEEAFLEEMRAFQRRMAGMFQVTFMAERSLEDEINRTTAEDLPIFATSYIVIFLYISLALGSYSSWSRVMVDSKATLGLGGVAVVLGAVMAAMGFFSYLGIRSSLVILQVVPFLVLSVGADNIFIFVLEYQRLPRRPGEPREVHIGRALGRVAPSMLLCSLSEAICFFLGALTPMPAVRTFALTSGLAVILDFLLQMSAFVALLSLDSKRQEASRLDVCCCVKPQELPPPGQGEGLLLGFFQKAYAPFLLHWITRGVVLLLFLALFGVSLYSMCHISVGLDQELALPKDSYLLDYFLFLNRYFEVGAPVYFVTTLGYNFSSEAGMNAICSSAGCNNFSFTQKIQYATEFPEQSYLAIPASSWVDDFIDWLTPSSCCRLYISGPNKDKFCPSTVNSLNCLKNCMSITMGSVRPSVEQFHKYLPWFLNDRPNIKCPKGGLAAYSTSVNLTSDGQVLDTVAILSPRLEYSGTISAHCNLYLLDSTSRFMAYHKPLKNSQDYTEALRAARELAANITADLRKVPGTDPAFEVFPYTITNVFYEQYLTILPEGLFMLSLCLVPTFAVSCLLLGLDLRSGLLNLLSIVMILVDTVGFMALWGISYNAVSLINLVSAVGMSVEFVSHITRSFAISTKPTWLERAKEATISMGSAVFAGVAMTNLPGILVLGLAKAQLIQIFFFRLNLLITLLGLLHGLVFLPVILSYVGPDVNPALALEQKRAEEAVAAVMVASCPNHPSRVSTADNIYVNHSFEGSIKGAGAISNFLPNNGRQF
# Procedure: as §1
# To validate MDCKII cells as an appropriate surrogate system for monitoring NPC1L1-dependent processes, we evaluated their ability to perform EZE-sensitive cholesterol flux using a similar protocol to that recently reported. This assay makes use of the ability of βmCD to deplete membrane-bound cholesterol. […]
# (§2) To further characterize the [^3H] cholesterol influx process into MDCK cells, the potency of EZE-like compound PS for inhibiting [^3H] cholesterol uptake was determined.
# [5] = molecular target: T2, human NPC1L1; experiment: [3H]cholesterol flux into hNPC1L1/MDCKII-Flp cells; type: cell-based; details: hNPC1L1/MDCKII-Flp, FIG. 7D; read-out: IC50 block of [3H]cholesterol flux
# Procedure: Flux assays were performed essentially as described by Yu et al., 2006 J Biol. Chem. 281:6616-6624. Briefly, cell growth medium was completely aspirated and replaced with 200 μl of 5% LPDS containing the appropriate concentration of compound and incubated at 37° C./3 h in a 5% CO2 incubator. Media was subsequently aspirated from cells and cells were incubated in 200 μl of 0-5.5% βmCD dissolved and filtered through a […] filter at 37° C./45 minutes in a 5% CO2 incubator. Media was dumped from cells that were then washed twice with 125 μl of 5% LPDS before media was aspirated and [3H]cholesterol complexed to BSA in 5% LPDS was added; see Yu et al., 2006 J. Biol. Chem. 281:6616-6624. After 45 minute incubation, cells were washed twice with DMEM, thoroughly aspirated and then 1% SDS was added prior to extraction for scintillation counting.
# To validate MDCKII cells as an appropriate surrogate system for monitoring NPC1L1-dependent processes, we evaluated their ability to perform EZE-sensitive cholesterol flux using a similar protocol to that recently reported. This assay makes use of the ability of βmCD to deplete membrane-bound cholesterol. Subsequent exposure of cells to [^3H] cholesterol provides a time-dependent flux of this substrate into the cells. […] In an attempt to improve the assay window, a stable MDCKII-Flp cell line over-expressing human NPC1L1, hNPC1L1/MDCKII-Flp, was generated.
# as §2
# [6] = test system: surface expression of NPC1L1 in MDCKII cells; experiment: Effect of lovastatin on surface expression of NPC1L1 ([3H]AS binding) in MDCKII cells; type: cell-based, dog; details: 4 μM lovastatin; for effect on [3H]AS binding: cells grown in 5% LPDS, 72 h
# Procedure: To determine whether the expression pattern of NPC1L1 in MDCKII cells is sensitive to changes in the endogenous concentration of cholesterol, MDCKII cells were seeded and grown in either 10% FBS or 5% lipoprotein deficient serum (5% LPDS) in the absence or presence of the HMG CoA reductase inhibitor, lovastatin.
# Sequence of dog NPC1L1 endogenously expressed in MDCKII cells (A0A8I3RZG1 entry or part of it): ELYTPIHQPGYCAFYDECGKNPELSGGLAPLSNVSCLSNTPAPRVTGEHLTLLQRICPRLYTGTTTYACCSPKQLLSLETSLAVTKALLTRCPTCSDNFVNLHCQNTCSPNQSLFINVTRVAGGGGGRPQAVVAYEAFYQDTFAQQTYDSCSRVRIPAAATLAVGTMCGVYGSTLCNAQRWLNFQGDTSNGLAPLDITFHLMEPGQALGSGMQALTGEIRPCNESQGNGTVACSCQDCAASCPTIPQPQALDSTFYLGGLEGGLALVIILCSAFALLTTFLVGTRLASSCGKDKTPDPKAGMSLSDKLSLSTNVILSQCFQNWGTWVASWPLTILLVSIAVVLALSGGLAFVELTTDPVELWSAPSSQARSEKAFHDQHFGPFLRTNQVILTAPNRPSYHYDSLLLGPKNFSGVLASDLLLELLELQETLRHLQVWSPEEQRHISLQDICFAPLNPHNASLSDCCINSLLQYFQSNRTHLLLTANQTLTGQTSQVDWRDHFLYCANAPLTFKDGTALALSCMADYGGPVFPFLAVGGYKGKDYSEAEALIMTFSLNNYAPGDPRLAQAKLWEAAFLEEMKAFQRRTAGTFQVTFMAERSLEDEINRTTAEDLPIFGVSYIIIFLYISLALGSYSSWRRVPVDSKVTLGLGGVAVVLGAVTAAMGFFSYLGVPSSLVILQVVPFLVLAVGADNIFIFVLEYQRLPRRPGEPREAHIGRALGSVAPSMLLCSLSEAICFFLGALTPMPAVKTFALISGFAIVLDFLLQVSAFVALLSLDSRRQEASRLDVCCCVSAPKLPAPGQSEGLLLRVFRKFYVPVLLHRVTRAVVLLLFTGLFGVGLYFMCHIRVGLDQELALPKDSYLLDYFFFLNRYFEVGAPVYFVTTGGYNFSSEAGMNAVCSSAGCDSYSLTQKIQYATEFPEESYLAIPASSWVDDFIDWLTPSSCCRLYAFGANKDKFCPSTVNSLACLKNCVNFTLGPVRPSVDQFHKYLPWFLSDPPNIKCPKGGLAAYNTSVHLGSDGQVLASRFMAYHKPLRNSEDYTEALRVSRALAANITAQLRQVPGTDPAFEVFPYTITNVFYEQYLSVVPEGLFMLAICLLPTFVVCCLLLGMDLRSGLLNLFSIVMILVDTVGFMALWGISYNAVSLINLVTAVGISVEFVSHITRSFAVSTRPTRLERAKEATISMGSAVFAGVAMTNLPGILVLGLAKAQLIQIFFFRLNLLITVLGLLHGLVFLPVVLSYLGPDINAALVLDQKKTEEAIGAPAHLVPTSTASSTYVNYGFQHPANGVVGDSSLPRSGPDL
# Sequence of dog NPC1L1 (A0A8I3RZG1 entry or part of it): as above
structure (smiles),measurement,setting,value
"CS(=O)(=O)NCCCc1ccc(N2C(=O)[C@H](CC[C@H](O)c3ccc(F)cc3)[C@H]2c2ccc(O[C@@H]3O[C@H](C(=O)O)[C@@H](O)[C@H](O)[C@H]3O)cc2)cc1 [AS, 4-[(2S,3R)-3-[(3S)-3-(4-fluorophenyl)-3-hydroxypropyl]-1-(4-{3-[(methylsulfonyl)amino]propyl}phenyl)-4-oxoazetidin-2-yl]phenyl β-D-gluteopyranosiduronic acid]",IC50,"[1]; 5.49 nM [3H]AS, 4 h, 37° C., read-out: IC50 inhibition of [3H]AS binding",2.86 nM
same,Ki,[1]; MDCKII cells,0.34 ± 0.04 nM
same,Kd,"[1]; MDCKII cells, increasing [3H]AS, 4 h, 37° C.",0.59 ± 0.07 nM
same,IC50,"[2]; 5.36 nM [3H]AS, 4 h, 37° C., read-out: IC50 inhibition of [3H]AS binding",5.25 nM
same,Ki,[2]; rNPC1L1/HEK293 cells,2.35 ± 0.49 nM
same,Kd,"[2]; rNPC1L1/HEK293 cells, increasing [3H]AS, 4 h, 37° C., read-out: Kd (equilibrium dissociation constant, saturation binding)",4.62 ± 0.69 nM
same,IC50,"[3]; 4.65 nM [3H]AS, 4 h, 37° C., read-out: IC50 inhibition of [3H]AS binding",3.79 nM
same,Kd,"[3]; dog NPC1L1/TsA201 cells, read-out: Kd (saturation binding)",2.15 ± 0.39 nM
same,Ki,"[3]; dog NPC1L1/TsA201 cells, read-out: Ki (competition with [3H]AS)",1 ± 0.11 nM
"O=C(O)C1OC(Oc2ccc(C3C(CCC(O)c4ccc(F)cc4)C(=O)N3c3ccc(F)cc3)cc2)C(O)C(O)C1O (single isomer, unassigned; ent-1) [ent-1]",Ki,[4],> 100000 nM
same,IC50,[5],> 100000 nM
CC[C@H](C)C(=O)O[C@H]1C[C@@H](C)C=C2C=C[C@H](C)[C@H](CC[C@@H]3C[C@@H](O)CC(=O)O3)[C@H]21 [lovastatin],effect on [3H]AS binding,[6],doubles
same,effect on [3H]AS binding,[6]; listed as Lovastatin,increase
same,effect on surface expression of NPC1L1,[6]; cells grown in 10% FBS,does not cause any significant effect
